# Biological target: T1, Bcl-2 protein (Recombinant Human Bcl-2 Protein) (Homo sapiens, UniProt P10415)
# T1 construct: purchased Novus NBP2-34889
# Experiment: Binding evaluation of mixture library compounds to Bcl-2 using AS-MS (affinity selection mass spectrometry)
# Settings: ASMS Ratio(%)=(A−C)/B×100; for ASMS ratio (%) n = 1: replicate n = 1; for ASMS ratio (%) n = 2: replicate n = 2
# Method in brief: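 ASMS Ratio (%) was calculated as (A−C)/B×100, where A is the protein sample after SEC, B the protein-free sample without SEC and C the protein-free sample after SEC. Each compound was at […] in a 1200-member pool with 20 μM Bcl-2, incubated 1 h at 23° C.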
# [1] = AS-MS on the mixture of 1200 library compounds
# T1 sequence (P10415 whole entry): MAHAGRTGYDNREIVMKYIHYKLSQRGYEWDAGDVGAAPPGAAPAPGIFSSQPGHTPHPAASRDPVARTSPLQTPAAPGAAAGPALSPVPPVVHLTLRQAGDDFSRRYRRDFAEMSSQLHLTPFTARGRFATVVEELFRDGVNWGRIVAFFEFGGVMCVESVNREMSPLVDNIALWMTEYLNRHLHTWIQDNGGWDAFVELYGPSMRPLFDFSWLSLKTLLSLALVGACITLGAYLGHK
ASMS ratio (%) n = 1 [1] [%],ASMS ratio (%) n = 2 [1] [%],"ASMS ratio (%) n = 1 (AS-MS, mixture library, Bcl-2) [%]","ASMS ratio (%) n = 2 (AS-MS, mixture library, Bcl-2) [%]",SMILES
,,3.1,7.2,"CCOc1cccc(C#Cc2cncc(C(=O)N3CCN(c4ccc(C(=O)NS(=O)(=O)CC56CC7CC(CC(C7)C5)C6)nn4)CC3)c2)c1 [B2A009-01, N-(1-Adamantylmethylsulfonyl)-6-[4-[5-[2-(3-ethoxyphenyl)ethynyl]pyridine-3-carbonyl]piperazin-1-yl]pyridazine-3-carboxamide]"
,,0.0,0.0,"CCOc1cncc(C#Cc2cncc(C(=O)N3CCN(c4ccc(C(=O)NS(=O)(=O)CC56CC7CC(CC(C7)C5)C6)nn4)CC3)c2)c1 [B2A010-01, N-(1-Adamantylmethylsulfonyl)-6-[4-[5-[2-(5-ethoxypyridin-3-yl)ethynyl]pyridine-3-carbonyl]piperazin-1-yl]pyridazine-3-carboxamide]"
,,9.0,0.3,"CCOc1cccc(-c2ccccc2CCC(=O)N2CCN(c3ccc(C(=O)NS(=O)(=O)CC45CC6CC(CC(C6)C4)C5)nn3)CC2)c1 [B2A011-01, N-(1-Adamantylmethylsulfonyl)-6-[4-[3-[2-(3-ethoxyphenyl)phenyl]propanoyl]piperazin-1-yl]pyridazine-3-carboxamide]"
,,1.5,1.9,"CCOc1cncc(-c2ccccc2CCC(=O)N2CCN(c3ccc(C(=O)NS(=O)(=O)CC45CC6CC(CC(C6)C4)C5)nn3)CC2)c1 [B2A012-01, N-(1-Adamantylmethylsulfonyl)-6-[4-[3-[2-(5-ethoxypyridin-3-yl)phenyl]propanoyl]piperazin-1-yl]pyridazine-3-carboxamide]"
,,11.6,17.8,"CCOc1cccc(-c2ccc(C(=O)N3CCN(c4ccc(C(=O)NS(=O)(=O)CC56CC7CC(CC(C7)C5)C6)nn4)CC3)c3ccccc23)c1 [B2A013-01, N-(1-Adamantylmethylsulfonyl)-6-[4-[4-(3-ethoxyphenyl)naphthalene-1-carbonyl]piperazin-1-yl]pyridazine-3-carboxamide]"
,,7.7,2.2,"CCOc1cncc(-c2ccc(C(=O)N3CCN(c4ccc(C(=O)NS(=O)(=O)CC56CC7CC(CC(C7)C5)C6)nn4)CC3)c3ccccc23)c1 [B2A014-01, N-(1-Adamantylmethylsulfonyl)-6-[4-[4-(5-ethoxypyridin-3-yl)naphthalene-1-carbonyl]piperazin-1-yl]pyridazine-3-carboxamide]"
,,5.9,9.7,"CCOc1cccc(-c2cc(C(=O)N3CCN(c4ccc(C(=O)NS(=O)(=O)CC56CC7CC(CC(C7)C5)C6)nn4)CC3)cc(C(C)(C)C)c2)c1 [B2A015-01, N-(1-Adamantylmethylsulfonyl)-6-[4-[3-tert-butyl-5-(3-ethoxyphenyl)benzoyl]piperazin-1-yl]pyridazine-3-carboxamide]"
,,0.0,2.5,"CCOc1cncc(-c2cc(C(=O)N3CCN(c4ccc(C(=O)NS(=O)(=O)CC56CC7CC(CC(C7)C5)C6)nn4)CC3)cc(C(C)(C)C)c2)c1 [B2A016-01, N-(1-Adamantylmethylsulfonyl)-6-[4-[3-tert-butyl-5-(5-ethoxypyridin-3-yl)benzoyl]piperazin-1-yl]pyridazine-3-carboxamide]"

# More lines, now with the values behind:
SMILES,ASMS ratio (%) n = 1 [1] [%],ASMS ratio (%) n = 2 [1] [%],"ASMS ratio (%) n = 1 (AS-MS, mixture library, Bcl-2) [%]","ASMS ratio (%) n = 2 (AS-MS, mixture library, Bcl-2) [%]"
"CCOc1cncc(-c2ccc(C(C)N3CCN(c4ccc(C(=O)Nc5ccc(OC)cc5)cc4)CC3)cc2)c1 (stereo not shown) [B1O098-01, 4-[4-[1-[4-(5-Ethoxypyridin-3-yl)phenyl]ethyl]piperazin-1-yl]-N-(4-methoxyphenyl)benzamide]",−42.7,−0.2,,
"CCOc1cccc(-c2ccc(C(C)N3CCN(c4ccc(C(=O)Nc5ccc(OC)cc5)cc4)CC3)c(F)c2)c1 (stereo not shown) [B1O099-01, 4-[4-[1-[4-(3-Ethoxyphenyl)-2-fluorophenyl]ethyl]piperazin-1-yl]-N-(4-methoxyphenyl)benzamide]",4.7,1.7,,
"CCOc1cncc(-c2ccc(C(C)N3CCN(c4ccc(C(=O)Nc5ccc(OC)cc5)cc4)CC3)c(F)c2)c1 (stereo not shown) [B1O100-01, 4-[4-[1-[4-(5-Ethoxypyridin-3-yl)-2-fluorophenyl]ethyl]piperazin-1-yl]-N-(4-methoxyphenyl)benzamide]",−19.7,11.1,,
"CCOc1cccc(-c2csc(C(=O)N3CCN(c4ccc(C(=O)NS(=O)(=O)CC56CC7CC(CC(C7)C5)C6)nn4)CC3)c2)c1 [B2A001-01, N-(1-Adamantylmethylsulfonyl)-6-[4-[4-(3-ethoxyphenyl)thiophene-2-carbonyl]piperazin-1-yl]pyridazine-3-carboxamide]",,,0.0,0.0
"CCOc1cncc(-c2csc(C(=O)N3CCN(c4ccc(C(=O)NS(=O)(=O)CC56CC7CC(CC(C7)C5)C6)nn4)CC3)c2)c1 [B2A002-01, N-(1-Adamantylmethylsulfonyl)-6-[4-[4-(5-ethoxypyridin-3-yl)thiophene-2-carbonyl]piperazin-1-yl]pyridazine-3-carboxamide]",,,0.0,0.0
"CCOc1cccc(-c2ccc(C(=O)N3CCN(c4ccc(C(=O)NS(=O)(=O)CC56CC7CC(CC(C7)C5)C6)nn4)CC3)cc2C)c1 [B2A003-01, N-(1-Adamantylmethylsulfonyl)-6-[4-[4-(3-ethoxyphenyl)-3-methylbenzoyl]piperazin-1-yl]pyridazine-3-carboxamide]",,,21.0,11.0
"CCOc1cncc(-c2ccc(C(=O)N3CCN(c4ccc(C(=O)NS(=O)(=O)CC56CC7CC(CC(C7)C5)C6)nn4)CC3)cc2C)c1 [B2A004-01, N-(1-Adamantylmethylsulfonyl)-6-[4-[4-(5-ethoxypyridin-3-yl)-3-methylbenzoyl]piperazin-1-yl]pyridazine-3-carboxamide]",,,0.0,0.0
"CCOc1cccc(-c2ccc(C(=O)N3CCN(c4ccc(C(=O)NS(=O)(=O)CC56CC7CC(CC(C7)C5)C6)nn4)CC3)cc2F)c1 [B2A005-01, N-(1-Adamantylmethylsulfonyl)-6-[4-[4-(3-ethoxyphenyl)-3-fluorobenzoyl]piperazin-1-yl]pyridazine-3-carboxamide]",,,4.7,12.4
"CCOc1cncc(-c2ccc(C(=O)N3CCN(c4ccc(C(=O)NS(=O)(=O)CC56CC7CC(CC(C7)C5)C6)nn4)CC3)cc2F)c1 [B2A006-01, N-(1-Adamantylmethylsulfonyl)-6-[4-[4-(5-ethoxypyridin-3-yl)-3-fluorobenzoyl]piperazin-1-yl]pyridazine-3-carboxamide]",,,0.0,0.0
"CCOc1cccc(C#Cc2ccccc2C(=O)N2CCN(c3ccc(C(=O)NS(=O)(=O)CC45CC6CC(CC(C6)C4)C5)nn3)CC2)c1 [B2A007-01, N-(1-Adamantylmethylsulfonyl)-6-[4-[2-[2-(3-ethoxyphenyl)ethynyl]benzoyl]piperazin-1-yl]pyridazine-3-carboxamide]",,,,0.0
"CCOc1cncc(C#Cc2ccccc2C(=O)N2CCN(c3ccc(C(=O)NS(=O)(=O)CC45CC6CC(CC(C6)C4)C5)nn3)CC2)c1 [B2A008-01, N-(1-Adamantylmethylsulfonyl)-6-[4-[2-[2-(5-ethoxypyridin-3-yl)ethynyl]benzoyl]piperazin-1-yl]pyridazine-3-carboxamide]",,,3.1,7.2

# From US20240132431A1, “METHOD FOR ALKYLATING ACIDIC FUNCTIONAL GROUP” (Chugai Seiyaku Kabushiki Kaisha, priority 2021, published 2024)
